Several values for one entry are separate records, joined by “and”; a condition that tells them apart may be missing. Equal entries are not always repeated.
Assays:
[1] = test system: subjects with idiopathic PD with LIDs
Experimental: (§1) At the time the study was performed (2009), there was no FDA accepted instrument for measuring treatment efficacy for LIDs. Therefore, several secondary objectives were utilized to assess efficacy including the Unified Dyskinesia Rating Scale (UDysRS).
(§2) Efficacy was measured with the Unified Dyskinesia Rating Scale (UDysRS), a semi-quantitative assessment, FDA-validated instrument to assess […] dyskinesia in PD. […] Dosing was begun at 1 mg every 6 hours to a final dose of 24 mg per day. Patients who tolerated a total daily dose of at least 16 mg per day continued in the study.
(§3) LIDs were assessed by the UDysRS, the main measure of LIDs (Table 12). […] The study was conducted in accordance with the Declaration of Helsinki and Good Clinical Practice Guidelines. All sites received approval from an institutional review board and written informed consent was obtained from each patient prior to participation.
(§4) The efficacy variables for LIDs were the mean change from baseline to week 10 in the UDysRS total score; UDysRS sub-scores (Table 12). An analysis of covariance (ANCOVA) combined features of regression and analysis of variance (ANOVA). In addition to the descriptive summary of each variable from baseline to endpoint, Least Square (LS) means standard errors and 95% Confidence intervals (CI) of each group, and the difference of LS means between the 2 treatment groups and its 95% CI are presented. A similar analysis was applied to comparisons between UPDRS Part II, UPDRS Part III.

[2] = test system: subjects with idiopathic PD with LIDs; remark: listed apart in the source
Experimental: as §1
A total of 65 male and female subjects with idiopathic PD with LIDs were randomized in the study. The study consisted of 4 phases (FIG. 6A): screening phase (up to 3 weeks), double-blind treatment phase (10 weeks), taper phase (2 weeks), and follow-up phase (2 weeks). The approximate duration of the study for each subject was 17 weeks. […] During the double-blind treatment phase, dosing was begun at Visit 0 at 1 mg every 6 hours (total daily dose [TDD]=4 mg/day) and escalated upwards at 2-week intervals as follows: 2 mg every 6 hours (TDD=8 mg/day) at Visit 1 (Week 2); 4 mg every 6 hours (TDD=16 mg/day) at Visit 2 (Week 4); 6 mg every 6 hours (TDD=24 mg/day) at Visit 3 (Week 6). Subjects were maintained on 24 mg/day for 4 weeks. The subsequent taper phase (2 weeks total), beginning at Visit 4 (Week 10), consisted of 9 days of drug taper and 5 days off drug prior to Visit 5 (final safety visit). […] Ondansetron was provided by the sponsor and dispensed with each dose escalation step with instructions to use it for nausea and vomiting only during the first 4 days following dose initiation or escalation. […] No other dose down-titration was allowed.
as §2
Subjects were maintained on 24 mg/day for 4 weeks. The subsequent taper phase (2 weeks total), beginning at visit 4 (Week 10), consisted of 9 days of drug taper and 5 days off drug prior to Visit 5 (final safety visit). […] No other down-titration was allowed.
as §3

[3] = test system: subjects with idiopathic PD with LIDs; remark: listed apart in the source
Text: The original UPDRS scale was used. […] In the UPDRS Part II, Question 13 is on Falling unrelated to Freezing. […] In Part II, Question 14 is on Freezing when Walking. This is a 5-point item and has two variables freezing and falls. […] Questions 13 and 14 were compared separately (Table 11).
as §4

[4] = test system: subjects with idiopathic PD with LIDs; remark: listed apart in the source
Experimental: as §1

## CN1CCCC1c1cccnc1.O=C(O)C(O)C(O)C(=O)O (stereo not shown) [NP002, Nicotine Bitartrate]
[1]; NP002 vs placebo, p 0.011
  UDysRS Evaluation of Dyskinesias on Ambulation, Difference LS Means: −3.7 +/− 1.9
[1]; NP002 vs placebo, p 0.062
  UDysRS Evaluation of Dyskinesias on 7 Body Parts, Difference LS Means: −2.8 +/− 2.6
[1]; NP002 vs placebo, p 0.092
  Total Score UDysRS, Difference LS Means: −6.7 +/− 4.1
[1]; NP002 vs placebo, p 0.139
  UDysRS Evaluation of Dyskinesias on Dressing, Difference LS Means: −2.1 +/− 1.4
[1]; NP002 vs placebo, p 0.171
  UDysRS Evaluation of Dyskinesias on Drinking, Difference LS Means: −2.4 +/− 1.7
[1]; NP002 vs placebo, p 0.189
  UDysRS Evaluation of Dyskinesias on Communication, Difference LS Means: −1.9 +/− 1.4
[1]; Week 10
  UDysRS total score (primary outcome of dyskinesia) vs placebo: statistical trend towards improvement
[1]; baseline to week 10, p=0.011 vs placebo
  reduction (improvement) in UDysRS ambulation subtest: 46% and 46.3%
[1]; baseline to week 10, p=0.09 vs placebo
  reduction in LIDs on the Total UDysRS: 29%
[1]; before treatment, n=35
  Total Score UDysRS, Baseline: 51.7 +/− 16.9
  UDysRS Evaluation of Dyskinesias on 7 Body Parts, Baseline: 13.5 +/− 5.4
  UDysRS Evaluation of Dyskinesias on Ambulation, Baseline: 9.5 +/− 6.0
  UDysRS Evaluation of Dyskinesias on Communication, Baseline: 10.5 +/− 4.8
  UDysRS Evaluation of Dyskinesias on Dressing, Baseline: 11.3 +/− 6.2
  UDysRS Evaluation of Dyskinesias on Drinking, Baseline: 9.1 +/− 5.6
[1]; dyskinesia impact on ambulation, p=0.011
  physician reported outcomes per UDysRS Part III vs placebo: significant improvement
[1]; n=27
  Total Score UDysRS, Week 10: 36.4 +/− 16.1
  UDysRS Evaluation of Dyskinesias on Ambulation, Week 10: 5.1 +/− 5.3
  UDysRS Evaluation of Dyskinesias on Communication, Week 10: 7.0 +/− 5.0
  UDysRS Evaluation of Dyskinesias on Dressing, Week 10: 6.9 +/−5.5
  UDysRS Evaluation of Dyskinesias on Drinking, Week 10: 5.3 +/− 5.0
[2]; 35 randomized
  Study discontinuation, primary reason adverse event, n (%): 6 n (%) and 6 (17.1) n (%)
[2]; N = 35
  Constipation: 5 (14.3) n (%)
  Diarrhea: 2 (5.7) n (%)
  Dizziness: 7 (20.0) n (%)
  Fatigue: 3 (8.6) n (%)
  Headache: 2 (5.7) n (%)
  Insomnia: 0 (0.0) n (%)
  Nausea: 13 (37.1) n (%)
  Nightmare: 2 (5.7) n (%)
  Number (%) of subject with any AE: 26 (74.3) n (%)
  Pain: 3 (8.6) n (%)
  Pain in extremity: 2 (5.7) n (%)
  Tremor: 2 (5.7) n (%)
  Vomiting: 4 (11.4) n (%)
[2]; because of adverse events, 35 randomized
  Subjects who required dose reduction or discontinuation of study treatment, n (%): 7 (20.0) n (%)
[2]; compliance check
  serum cotinine levels: paralleled dosing of nicotine
[2]; in vivo
  most frequent adverse event: nausea
  number of adverse events reported: 45
[2]; oral 4 times/day up to 24 mg/day, 10 weeks
  overall safety and tolerability: safe and well tolerated, other than nausea
[3]; NP002 versus placebo, p 0.337
  Difference in LS Means, UPDRS Part III: −18.3 ± 1.8
[3]; NP002 versus placebo, p 0.631
  Difference in LS Means, UPDRS Part II: 10.1 ± 0.96
[3]; baseline to 10 weeks
  UPDRS II Change: 2.8 ± 5.2
  UPDRS III Change: 2.0 ± 7.5
[3]; before treatment, n=35
  UPDRS II at Baseline: 13.1 ± 6.0
  UPDRS III at Baseline: 20.0 ± 8.8
[3]; n=30
  UPDRS II at 10 Weeks: 10.1 ± 5.3
  UPDRS III at 10 Weeks: 17.3 ± 10.6
[3]; p>0.34
  UPDRS Part II and Part III after treatment vs placebo: no significant differences
[4]; Visit 4 (Week 10), p=0.0048 vs placebo
  PGI-C responders (score of 1, 2, or 3): 21 (77.8%)
[4]; Visit 4 (Week 10), p=0.0453
  LF-ADL responders (>25% reduction from baseline), vs placebo: statistically significant difference between treatment groups
[4]; in vivo
  patient- and physician-rated assessments of efficacy vs placebo: superior to placebo on ALL patient- and physician-rated assessments of efficacy

From patent publication US20190307740A1, “COMPOSITIONS AND METHODS FOR TREATMENT RELATED TO FALL AND FALL FREQUENCY IN NEURODEGENERATIVE DISEASES” (Neurocea, LLC, priority 2016, published 2019)
